{
  "source": "patent US20200405700A1",
  "about": "(priority 2019, published 2020)",
  "assay": "Aerodynamic particle size distribution on Next Generation Impactor (NGI)",
  "format": "physicochemical",
  "settings": "sample 14 sprayed by soft mist inhaler, NGI at 30 L/min",
  "experimental": "Sample 14 was sprayed by a soft mist inhaler. Aerodynamic particle size distribution of droplets of sample 14 was measured on a Next Generation Impactor (NGI). Next Generation Impactor operated at a flow rate of 30 L/min was used for determination of particle size distribution. For each of the impactor experiments, the impactor collection stages were coated with a silicone oil. The particle size distribution is expressed in terms of mass median aerodynamic diameter (MMAD) and Geometric Standard Deviation (GSD).",
  "data": [
    {"compound": "O=C(O[C@H]1C[N+]2(CCCOc3ccccc3)CCC1CC2)C(O)(c1cccs1)c1cccs1.[Br-]", "note": "[Aclidinium bromide, 3(R)-(2-hydroxy-2,2-dithien-2-ylacetoxy)-1-(3-phenoxypropyl)-1-azoniabicy-clo[2.2.2]octane bromide]", "values": [
      {"measurement": "MMAD (mass median aerodynamic diameter)", "result": 4.49, "unit": "μm"}
    ]}
  ]
}
